EP4813977A1, “NOVEL COMPOUND AND USE THEREOF” (Protier Biotech Inc., priority 2023, dated 2025)

Legend:
[1] = biological target: T1, Cereblon (CRBN) protein (Homo sapiens, UniProt Q96SW2); assay: CRBN binding affinity, E3scan (Eurofins) competition binding with qPCR read-out; conditions: lower % Ctrl = stronger binding, DMSO = 100 % Ctrl, lenalidomide = 0 % Ctrl
T1 construct: purchased Eurofins (E3scan service); host or cells: HEK-293
Protocol: Specifically, CRBN was produced using a HEK-293 cell line and labeled with DNA for qPCR detection. Streptavidin-coated magnetic beads were treated with a biotinylated small-molecule ligand at room temperature for 30 minutes to generate an affinity resin for E3scan analysis. The liganded beads were blocked with excess biotin and washed with a blocking buffer (SeaBlock (Pierce), 1 % BSA, 0.05 % Tween 20, 1 mM DTT) to remove unbound ligands and prevent non-specific binding. […] The test compound was prepared as a 100× stock in 100 % DMSO and diluted directly into the assay solution. All reactions were performed in a polypropylene 384-well plate with a final reaction volume of 0.02 mL. […] The CRBN concentration in the eluate was measured by qPCR. […] A lower '% Ctrl' indicates a stronger binding affinity. […] ((test compound signal−positive control signal)/(negative control signal−positive control signal)) × 100 [formula]

[2] = system: T-cell leukemia cell line Jurkat; assay: Cell viability assay (Cell Counting Kit-8), Jurkat; assay type: cell-based; conditions: Homo sapiens, 72 hours, CCK-8, absorbance 450 nm
Protocol: To evaluate the cytotoxicity of the compounds synthesized in the Preparation Examples against cancer cells, a cell viability assay following treatment with the synthesized compounds was performed using a T-cell leukemia cell line Jurkat (KCLB, Cat# 40152), a human acute monocytic leukemia cell line MV-4-11 (ATCC, Cat# CRL-9591), and a human multiple myeloma cell line MM.1S (ATCC, Cat# CRL-2974).
As a culture medium for the cell lines, an RPMI medium containing 10 % heat-inactivated FBS and 1 % penicillin/streptomycin (P/S) antibiotics was used. The culture medium was stored refrigerated and warmed in a 37 °C water bath before use. Each cell line was used for the test after a stabilization period of at least 2 weeks after thawing, and cell culture was performed based on information provided by the cell line manufacturer regarding the thawing and subculture conditions.
The Jurkat, MV-4-11, or MM.1S cell line was seeded in a 96-well plate at a density of 1 × 10^4 cells/well and incubated in a 37 °C CO2 incubator overnight. After incubation, a prepared test compound was applied to each cell line, and the cells were incubated in a 37 °C CO2 incubator for 72 hours. After 72 hours of incubation, a Cell Counting Kit-8 (Dojindo, Cat# CK04-20) reagent was added, and the cells were incubated in a 37 °C CO2 incubator. Then, the absorbance was measured at 450 nm using a SpectraMax M3 Microplate Reader (N=2, duplicate measurement). The evaluation concentrations for evaluating the cytotoxicity of the compounds were 10 points: 100 µM, 20 µM, 4 µM, 0.8 µM, 0.16 µM, 0.032 µM, 0.0064 µM, 0.00128 µM, 0.000256 µM, and 0 µM, and the test was performed at 2 wells/concentration point (n=2). A GI50 was derived using a GraphPad Prism program.

SMILES	CRBN binding affinity (% Ctrl @ 5µM) [1]	GI50 [2] [nM]
O=C1CCC(N2Cc3cc(C(=O)c4ccccc4)ccc3C2=O)C(=O)N1 (centres unmarked) [Compound 1, 3-(5-benzoyl-1-oxoisoindolin-2-yl)piperidine-2,6-dione]	C (1 ≤ % Ctrl' < 10)	100 to 1000
O=C1CCC(N2Cc3nc(C(=O)c4ccccc4)ccc3C2=O)C(=O)N1 (centres unmarked) [Compound 5, 3-(2-benzoyl-5-oxo-5,7-dihydro-6H-pyrrolo[3.4-b]pyridin-6-yl)piperidine-2,6-dione]	C (1 ≤ % Ctrl' < 10)	
O=C1CCC(N2Cc3cc(C(=O)n4ncc5ccccc54)ccc3C2=O)C(=O)N1 (centres unmarked) [Compound 6, 3-(5-(1H-indazole-1-carbonyl)-1-oxoisoindolin-2-yl)piperidine-2,6-dione]	A (0 ≤ '% Ctrl' < 0.1)	
O=C1CCC(N2Cc3cc(C(=O)N4CCCC4)ccc3C2=O)C(=O)N1 (centres unmarked) [Compound 7, 3-(1-oxo-5-(pyrrolidine-1-carbonyl)isoindolin-2-yl)piperidine-2,6-dione]	A (0 ≤ '% Ctrl' < 0.1)	
O=C1CCC(N2Cc3cc(C(=O)c4c[nH]c5ccc(Cl)cc45)ccc3C2=O)C(=O)N1 (centres unmarked) [Compound 8, 3-(5-(5-chloro-1H-indole-3-carbonyl)-1-oxoisoindolin-2-yl)piperidine-2,6-dione]		≤ 100
O=C1CCC(N2C(=O)c3ccc(C(=O)c4cc5ccccc5[nH]4)cc3C2=O)C(=O)N1 (centres unmarked) [Compound 10, 2-(2,6-dioxopiperidin-3-yl)-5-(1H-indole-2-carbonyl)isoindoline-1,3-dione]	C (1 ≤ % Ctrl' < 10)	1000 to 10000
O=C1CCC(N2Cc3cc(C(=O)C4CCN(Cc5ccccc5)CC4)ccc3C2=O)C(=O)N1 (centres unmarked) [Compound 11, 3-(5-(1-benzylpiperidine-4-carbonyl)-1-ox.oisoindolin-2-yl)piperidine-2,6-dione]	A (0 ≤ '% Ctrl' < 0.1)	
O=C1CCC(N2Cc3cc(C(=O)c4ccccn4)ccc3C2=O)C(=O)N1 (centres unmarked) [Compound 12, 3-(1-oxo-5-picolinoylisoindelin-2-yi)piperidine-2,6-dione]	A (0 ≤ '% Ctrl' < 0.1)	
O=C1CCC(N2Cc3cc(C(=O)c4cccc(Nc5ccccc5)c4)ccc3C2=O)C(=O)N1 (centres unmarked) [Compound 16, 3-(1-oxo-5-(3-(phenylamino)benzoyl)isoindolin-2-yl)piperidine-2,6-dione]	A (0 ≤ '% Ctrl' < 0.1)	1000 to 10000
O=C1CCC(N2Cc3cc(C(=O)c4c[nH]c5ccc(-c6ccccc6)cc45)ccc3C2=O)C(=O)N1 (centres unmarked) [Compound 24, 3-(1-oxo-5-(5-phenyl-1H-indole-3-carbonyl)isoindolin-2-yl)piperidine-2,6-dione]	D (10 ≤ '% Ctrl' < 35)	
O=C1CCC(N2Cc3cc(C(=O)c4cn(-c5ccccc5)c5ccc(-c6ccccc6)cc45)ccc3C2=O)C(=O)N1 (centres unmarked) [Compound 25, 3-(5-(1,5-diphenyl-1H-indole-3-carbonyl)-1-oxoisoindolin-2-yl)piperidine-2,6-dione]	D (10 ≤ '% Ctrl' < 35)	
O=C1CCC(N2Cc3cc(C(=O)c4cccc(-c5ccccc5)c4)ccc3C2=O)C(=O)N1 (centres unmarked) [Compound 26, 3-(5-([1,1'-biphenyl]-3-carbonyl)-1-oxoisoindolin-2-yl)piperidine-2,6-dione]	A (0 ≤ '% Ctrl' < 0.1)	1000 to 10000
O=C1CCC(N2Cc3cc(C(=O)c4ccc(-c5ccccc5)[nH]4)ccc3C2=O)C(=O)N1 (centres unmarked) [Compound 28, 3-(1-oxo-5-(5-phenyl-1H-pyrrole-2-carbonyl)isoindolin-2-yl)piperidine-2,6-dione]	C (1 ≤ % Ctrl' < 10)	100 to 1000
O=C1CCC(N2Cc3cc(C(=O)c4cc(-c5ccccc5)cs4)ccc3C2=O)C(=O)N1 (centres unmarked) [Compound 30, 3-(1-oxo-5-(4-phenylthiophene-2-carbonyl)isoindolin-2-yl)piperidine-2,6-dione]	A (0 ≤ '% Ctrl' < 0.1)	100 to 1000
O=C1CCC(N2Cc3cc(C(=O)c4cn(Cc5ccccc5)c5ccccc45)ccc3C2=O)C(=O)N1 (centres unmarked) [Compound 32, 3-(5-(1-benzyl-1H-indole-3-carbonyl)-1-oxoisoindolin-2-yl)piperidine-2.6-dione]		100 to 1000
O=C1CCC(N2Cc3cc(C(=O)C4CCCC4)ccc3C2=O)C(=O)N1 (centres unmarked) [Compound 39, 3-(5-(cyclopentanecarbonyl)-1-oxoisoindolin-2-yl)piperidine-2,6-dione]		1000 to 10000
O=C1CCC(N2Cc3cc(C(=O)c4ccc(F)cc4)ccc3C2=O)C(=O)N1 (centres unmarked) [Compound 40, 3-(5-(4-fluorobenzoyl)-1-oxoisoindolin-2-yl)piperidine-2,6-dione]		100 to 1000
O=C1CCC(N2Cc3cc(C(=O)c4ccc(N5CCCCC5)cc4)ccc3C2=O)C(=O)N1 (centres unmarked) [Compound 41, 3-(1-oxo-5-(4-(piperidin-1-yl)benzoyl)isoindolin-2-yl)piperidine-2,6-dione]		100 to 1000
O=C1CCC(N2Cc3cc(C(=O)c4cccc5ccccc45)ccc3C2=O)C(=O)N1 (centres unmarked) [Compound 43, 3-(5-(1-naphthoyl)-1-oxoisoindolin-2-yl)piperidine-2,6-dione]		1000 to 10000
O=C1CCC(N2Cc3cc(C(=O)c4ccc(OC(F)(F)F)cc4)ccc3C2=O)C(=O)N1 (centres unmarked) [Compound 45, 3-(1-oxo-5-(4-(trifluoromethoxy)benzoyl)isoindolin-2-yl)piperidine-2,6-dione]		100 to 1000
O=C1CCC(N2Cc3cc(C(=O)c4ccc(Cl)cc4)ccc3C2=O)C(=O)N1 (centres unmarked) [Compound 48, 3-(5-(4-chlorobenzoyl)-1-oxoisoindolin-2-yl)piperidine-2,6-dione]		100 to 1000
O=C1CCC(N2Cc3cc(C(=O)c4ccc(C(F)(F)F)cc4)ccc3C2=O)C(=O)N1 (centres unmarked) [Compound 50, 3-(1-oxo-5-(4-(trifluoromethyl)benzoyl)isoindolin-2-yl)piperidine-2,6-dione]		100 to 1000
COc1ccc(C(=O)c2ccc3c(c2)CN(C2CCC(=O)NC2=O)C3=O)cc1 (centres unmarked) [Compound 51, 3-(5-(4-methoxybenzoyl)-1-oxoisoindolin-2-yl)piperidine-2,6-dione]		100 to 1000
O=C1CCC(N2Cc3cc(C(=O)c4ccc(OCc5ccccc5)cc4)ccc3C2=O)C(=O)N1 (centres unmarked) [Compound 53, 3-(5-(4-(benzyloxy)benzoyl)-1-oxoisoindolin-2-yl)piperidine-2,6-dione]		100 to 1000
Cc1ccc(C(=O)c2ccc3c(c2)CN(C2CCC(=O)NC2=O)C3=O)cc1 (centres unmarked) [Compound 54, 3-(5-(4-methylbenzoyl)-1-oxoisoindolin-2-yl)piperidine-2,6-dione]		100 to 1000
Cc1cccc(C(=O)c2ccc3c(c2)CN(C2CCC(=O)NC2=O)C3=O)c1 (centres unmarked) [Compound 61, 3-(5-(3-methylbenzoyl)-1-oxoisoindolin-2-yl)piperidine-2,6-dione]		≤ 100
Nc1ccc(C(=O)c2ccc3c(c2)CN(C2CCC(=O)NC2=O)C3=O)cc1 (centres unmarked) [Compound 64, 3-(5-(4-aminobenzoyl)-1-oxoisoindolin-2-yl)piperidine-2,6-dione]		100 to 1000
O=C1CCC(N2Cc3cc(C(=O)c4ccc[nH]4)ccc3C2=O)C(=O)N1 (centres unmarked) [Compound 73, 3-(1-oxo-5-(1H-pyrrole-2-carbonyl)isoindolin-2-yl)piperidine-2,6-dione]		≤ 100
O=C1CCC(N2Cc3cc(C(=O)c4ccc5ncsc5c4)ccc3C2=O)C(=O)N1 (centres unmarked) [Compound 76, 3-(5-(benzo[d]thiazole-6-carbonyl)-1-oxoisoindolin-2-yl)piperidine-2,6-dione]		≤ 100
